From publication PMC10312039 (Journal of Enzyme Inhibition and Medicinal Chemistry, 2023)

How the values were obtained:
[1] = test system: L. donovani promastigotes; test: In vitro potency; type: cell-based; settings: Leishmania donovani, 72 h, read-out: IC50 against L. donovani promastigotes
[2] = In vitro preliminary safety assessment: cytotoxicity on THP-1 cells; type: cell-based; settings: human, PMA-treated THP-1 monocytic cells

Compound	IC50 [1] [µM]	CC50 at 72 h [2] [µM]
CCCCCCCC/C=C\CCCCCCCCCCCCOP(=O)([O-])OCC[N+](C)(C)C [Erufosine]	9.8	19.4
CCCCCCCCCCCCCCCCOP(=O)([O-])OCC[N+](C)(C)C [Miltefosine]	3.5	–
